Experiments:
Solubility in water = type: physicochemical
albumin = molecular target: T1, albumin (Bos taurus, UniProt P02769); experiment: Gelation of albumin solution in PBS by synthetic crosslinker after raising pH; design: species or system bovine; conditions: for time to soft hydrogel: 333 mg bovine serum albumin in 0.667 ml PBS; for Gel time: 27° C.
T1 construct: 333 mg bovine serum albumin was dissolved in 0.667 ml PBS
Source text: As described above, a biological fluid (e.g., blood, serum, or fibrinogen rich fractions) may be used for reaction with crosslinkers or the monomers to form a crosslinked gel material. The material may be made in preparation for a medical procedure, e.g., immediately before or during the same, and used with a crosslinker or the monomer. […] The crosslinking reaction is accelerated by raising the pH of the solution. This can be achieved by contacting such composition with suitable alkaline buffer. Nonlimiting examples of suitable alkaline buffers include HEPES, sodium hydroxide, potassium hydroxide, calcium hydroxide, bicarbonate/NaOH pH 10, sodium borate pH 10, 1.5 M glycine/NaOH pH 10, 0.5-0.75M sodium carbonate/bicarbonate pH 10, 1M hydroxyethylepiperazine propane sulfonic acid (EPPS) pH 8.5, Trishydroxymethyl aminoethane sulphonic acid pH 8 and triethanol amine pH 7. The amount of alkaline buffer that is utilized should be enough to induce crosslinking. In some cases, the crosslinker is mixed with the alkaline buffer to raise the pH and then mixed with biological fluid to induce crosslinking or gelation. This method is least preferred due to hydrolysis of n-hydroxysuccimide esters at higher pH. The amine-succinimide ester reaction parameters such as number of reactive functional groups present on the biological fluid components, concentration of each ingredient, pH, temperature and pressures are adjusted such that gelation occurs within 60 minutes, more preferably with in 60 seconds and most preferably with 1 to 10 seconds.
pH was raised using 3M NaOH solution, at ambient temperature (27° C.) and mixed equal volumes. […] PEG 600 is polyethylene glycol with a molecular weight of 600.
[…] of […] was dissolved in 1 ml PBS. […] 20 microliter […] solution in PBS and 20 microliter albumin solution were mixed on a glass plate to form a uniform solution.
[…] of BTANHS was dispersed in 0.9 ml PBS. […] 20 microliter BTANHS dispersion in PBS and 20 microliter of albumin solution were mixed on a glass plate to form a uniform dispersion.
[…] of BTANHS was dispersed in 0.8 ml PBS containing 2% PLURONIC F127 (from BASF corporation USA) as a surfactant. Sonication or high speed stirring helps to form the emulsion. […] 20 microliter BTANHS emulsion in PBS and 20 microliter of albumin solution were mixed in a 1 ml plastic centrifuge tube to form a uniform solution.
Polyethylene glycol serves as an organic solvent. 200 mg bovine serum albumin was dissolved in 0.800 ml PBS.
20 microliter albumin solution and 20 microliter crosslinkers solution were mixed on a glass plate to form a uniform solution.

[1] = Degradation of crosslinked gel made with 8 arm PEG amine; type: physicochemical; conditions: gel with 8 arm PEG amine 20000; hydrolysis of ester bond of crosslinker
Description: 1 ml of each of these two solutions are mixed to produce a crosslinked gel. The crosslinked gel degrades due to hydrolysis of succinate ester bond in Hydroxylamine Succinate NHS ester.
0.12 g Hydroxylamine Glutarate NHS ester (Example 7) is dissolved in 5 ml phosphate buffered saline. 1 ml of each of two solutions are mixed to produce a crosslinked gel. The crosslinked gel degrades due to hydrolysis of glutarate ester bond in Hydroxylamine Glutarate NHS ester.

T1 sequence (P02769 25-607): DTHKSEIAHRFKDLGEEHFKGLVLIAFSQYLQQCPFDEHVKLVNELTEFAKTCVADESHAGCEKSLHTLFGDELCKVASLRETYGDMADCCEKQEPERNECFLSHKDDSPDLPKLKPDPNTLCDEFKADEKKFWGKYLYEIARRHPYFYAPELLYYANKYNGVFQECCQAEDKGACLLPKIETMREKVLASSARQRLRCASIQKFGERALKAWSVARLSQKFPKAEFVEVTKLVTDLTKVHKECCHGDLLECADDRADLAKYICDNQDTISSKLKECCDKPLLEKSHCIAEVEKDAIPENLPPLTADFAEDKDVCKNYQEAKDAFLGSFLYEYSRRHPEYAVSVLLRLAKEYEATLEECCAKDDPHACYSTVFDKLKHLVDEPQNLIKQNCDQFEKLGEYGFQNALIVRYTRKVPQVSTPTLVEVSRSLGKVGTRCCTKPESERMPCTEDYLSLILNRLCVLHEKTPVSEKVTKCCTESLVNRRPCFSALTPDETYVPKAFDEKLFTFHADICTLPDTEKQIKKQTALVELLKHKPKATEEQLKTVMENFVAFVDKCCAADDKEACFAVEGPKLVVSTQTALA

With O=C(CC(C(=O)ON1C(=O)CCC1=O)C(CC(=O)ON1C(=O)CCC1=O)C(=O)ON1C(=O)CCC1=O)ON1C(=O)CCC1=O (stereo not shown) [BTANHS] the solubility in water (Solubility in water) was “Water Insoluble”, the “time to soft hydrogel” value (albumin; crosslinker dispersion in PBS, 3M sodium hydroxide) was 5 min and the “time to soft hydrogel” value (albumin; crosslinker emulsion in PBS with 2% PLURONIC F127, triethanol amine) was 3 min. For the same compound, the “Notes (gel formed)” value (albumin; 5% albumin in PBS, crosslinker 10% in PBS) was “Did not gel”, the “Gel time” value (albumin; 5% albumin in PBS, crosslinker 10% in PBS, 3M NaOH, equal volumes) was over 28 min and the “Notes (gel formed)” value (albumin; 5% albumin in PBS, crosslinker (10%) in PEG 600) was “Did not gel”. The “Gel time” value (albumin; 5% albumin in PBS, crosslinker (10%) in PEG 600, 3M NaOH) was over 25 min, the “Notes (gel formed)” value (albumin; 10% albumin in PBS, crosslinker 10% in PBS) was “Soft gel” and the “Gel time” value (albumin; 10% albumin in PBS, crosslinker 10% in PBS, 3M NaOH, equal volumes) was 18 min. The “Notes (gel formed)” value (albumin; 20% albumin in PBS, crosslinker 10% in PBS) was “Soft gel”, the “Gel time” value (albumin; 20% albumin in PBS, crosslinker 10% in PBS, 3M NaOH, equal volumes) was 3 min and the “Notes (gel formed)” value (albumin; 20% albumin in PBS, crosslinker (10%) in PEG 600) was “Soft gel”. The “Gel time” value (albumin; 20% albumin in PBS, crosslinker (10%) in PEG 600, 3M NaOH) was 5 min, the “Notes (gel formed)” value (albumin; 30% albumin in PBS, crosslinker 10% in PBS) was “Soft gel” and the “Gel time” value (albumin; 30% albumin in PBS, crosslinker 10% in PBS, pH raised with 3M NaOH, equal volumes) was 1 min.
In the case of Hydroxylamine Glutarate NHS Ester, the “degradation of crosslinked gel” value [1] was “degrades”.
